The results in this text go back to patent US12583854B2, “KRAS G12C inhibitors and methods of using the same” (Amgen Inc., priority 2018, dated 2026).

For test [1], the system named is Phosphorylation of ERK1/2 in MIA PaCa-2 cells. Description: Phospho-ERK1/2 MSD Assay. The test is classed as cell-based. To be noted: EGF stimulation 10 ng/mL, 10 min, read-out: p-ERK IC50 (2 h). Here is the method:
Phospho-ERK1/2 MSD Assay: MIA PaCa-2 (ATCC® CRL-1420™) and A549 (ATCC® CCL-185™) cells were cultured in RPMI 1640 Medium (ThermoFisher Scientific 11875093) containing 10% fetal bovine serum (ThermoFisher Scientific 16000044) and 1× penicillin-streptomycin-glutamine (ThermoFisher Scientific 10378016). Sixteen hours prior to compound treatment, MIA PaCa-2 were seeded in 96-well cell culture plates at a density of 25,000 cells/well and incubated at 37° C., 5% CO2. A compound dose-response titration was diluted in growth media, added to appropriate wells of a cell culture plate, and then incubated at 37° C., 5% CO2 for 2 (see Table 10). Following compound treatment, cells were stimulated with 10 ng/mL EGF (Roche 11376454001) for 10 min, washed with ice-cold Dulbecco's phosphate-buffered saline, no Ca^2+ or Mg^2+ (ThermoFisher Scientific 14190144), and then lysed in RIPA buffer (50 mM Tris-HCl pH 7.5, 1% Igepal, 0.5% sodium deoxycholate, 150 mM NaCl, and 0.5% sodium dodecyl sulfate) containing protease inhibitors (Roche 4693132001) and phosphatase inhibitors (Roche 4906837001). Phosphorylation of ERK1/2 in compound-treated lysates was assayed using Phospho-ERK1/2 Whole Cell Lysate kits (Meso Scale Discovery K151DWD) according to the manufacturer's protocol. Assay plates were read on a Meso Scale Discovery Sector Imager 6000, and data were analyzed using a 4-parameter logistic model to calculate IC50 values.

Test [2] concerns the target GDP-bound KRAS protein (aa 1-169), containing both G12C and C118A amino acid substitutions (Homo sapiens, UniProt P01116, C118A/G12C). The experiment in a line: Coupled Nucleotide Exchange Assay. The format is biochemical. To be noted: 5 min compound pre-incubation; SOS-mediated nucleotide exchange, AlphaScreen. Here is the method: Following compound pre-incubation, purified SOS protein (aa 564-1049) and GTP (Roche 10106399001) were added to the assay wells and incubated for an additional 30 min. To determine the extent of inhibition of SOS-mediated nucleotide exchange, purified GST-tagged cRAF (aa 1-149), nickel chelate AlphaLISA acceptor beads (PerkinElmer AL108R), and AlphaScreen glutathione donor beads (PerkinElmer 6765302) were added to the assay wells and incubated for 10 minutes. The assay plates were then read on a PerkinElmer EnVision Multilabel Reader, using AlphaScreen® technology, and data were analyzed using a 4-parameter logistic model to calculate IC50 values.

Setting [3] is: Homo sapiens, MIA PaCa-2, 2 h compound treatment.

pIC50: −log10 of the molar value. Where two headings read alike, the source gives them in different places.

Sequence of GDP-bound KRAS protein (aa 1-169), containing both G12C and C118A amino acid substitutions (P01116 1-169 isoform P01116-2 G12C/C118A): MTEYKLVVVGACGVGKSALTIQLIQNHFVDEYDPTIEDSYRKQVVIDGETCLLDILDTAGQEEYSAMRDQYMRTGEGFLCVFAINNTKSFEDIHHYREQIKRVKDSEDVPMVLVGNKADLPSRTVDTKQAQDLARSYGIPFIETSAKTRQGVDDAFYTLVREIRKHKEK

Consider `CC(C)c1ncnc(C(C)C)c1-n1c(=O)c(C#N)c(N2CCN(C(=O)/C=C/CNC3CC3)CC2)c2cc(Cl)c(-c3ccccc3F)nc21` [Example 5, (E)-6-Chloro-4-(4-(4-(cyclopropylamino)but-2-enoyl)piperazin-1-yl)-1-(4,6-diisopropylpyrimidin-5-yl)-7-(2-fluorophenyl)-2-oxo-1,2-dihydro-1,8-naphthyridine-3-carbonitrile], for which the pIC50 in test [1] (setting [3]) was 6.12. Also, the “Coupled exchange IC50 (5 min; μM)” value in test [2] amounted to 0.70 µM.

For the molecule `CC(C)NC/C=C/C(=O)N1CCN(c2c(C#N)c(=O)n(-c3c(C(C)C)ncnc3C(C)C)c3nc(-c4ccccc4F)c(Cl)cc23)CC1` [Example 5.1, (E)-6-chloro-1-(4,6-diisopropylpyrimidin-5-yl)-7-(2-fluorophenyl)-4-(4-(4-(isopropylamino)but-2-enoyl)piperazin-1-yl)-2-oxo-1,2-dihydro-1,8-naphthyridine-3-carbonitrile], in test [1] (setting [3]), the pIC50 was 6.25. Besides, in test [2], the “Coupled exchange IC50 (5 min; μM)” value came out at 0.44 µM.

On to `CC(C)c1ncnc(C(C)C)c1-n1c(=O)c(C#N)c(N2CCN(C(=O)/C=C/CNC(C)(C)C)CC2)c2cc(Cl)c(-c3ccccc3F)nc21` [Example 5.2, (E)-4-(4-(4-(tert-butylamino)but-2-enoyl)piperazin-1-yl)-6-chloro-1-(4,6-diisopropylpyrimidin-5-yl)-7-(2-fluorophenyl)-2-oxo-1,2-dihydro-1,8-naphthyridine-3-carbonitrile], for which the pIC50 in test [1] (setting [3]) is 6.41. Besides, in test [2], the “Coupled exchange IC50 (5 min; μM)” value came to 0.44 µM.

`C=CC(=O)N1CCN(c2c(C#N)c(=O)n(-c3c(C)ccnc3C(C)C)c3nc(-c4ccccc4F)c(Cl)cc23)CC1` [Example 6, 4-(4-Acryloylpiperazin-1-yl)-6-chloro-7-(2-fluorophenyl)-1-(2-isopropyl-4-methylpyridin-3-yl)-2-oxo-1,2-dihydro-1,8-naphthyridine-3-carbonitrile]: in test [1] (2 h compound treatment), the pIC50 is 6.77. The “Coupled exchange IC50 (5 min; μM)” value in test [2] worked out at 0.17 µM.

For the molecule `C=CC(=O)N1CCN(c2c(C#N)c(=O)n(-c3c(C)ccnc3C(C)C)c3nc(-c4ccccc4F)c(Cl)cc23)C[C@H]1C` [Example 6.2, (R)-4-(4-acryloyl-3-methylpiperazin-1-yl)-6-chloro-7-(2-fluorophenyl)-1-(2-isopropyl-4-methylpyridin-3-yl)-2-oxo-1,2-dihydro-1,8-naphthyridine-3-carbonitrile], the pIC50 in test [1] (setting [3]) is 6.85. In addition, the “Coupled exchange IC50 (5 min; μM)” value in test [2] came to 0.28 µM.

`C=CC(=O)N1CCN(c2c(C#N)c(=O)n(-c3c(C(C)C)ncnc3C(C)C)c3nc(-c4ccccc4F)c(Cl)cc23)CC1` [Example 6.3, 4-(4-acryloylpiperazin-1-yl)-6-chloro-1-(4,6-diisopropylpyrimidin-5-yl)-7-(2-fluorophenyl)-2-oxo-1,2-dihydro-1,8-naphthyridine-3-carbonitrile]: in test [1] (setting [3]), the pIC50 is 7.40. In addition, the “Coupled exchange IC50 (5 min; μM)” value in test [2] is 0.07 µM.

For `C=CC(=O)N1CCN(c2c(C#N)c(=O)n(-c3c(C)ccnc3C(C)C)c3nc(-c4ccccc4F)c(Cl)cc23)CC1` [Example 6.5, 4-(4-acryloylpiperazin-1-yl)-6-chloro-7-(2-fluorophenyl)-1-(2-isopropyl-4-methylpyridin-3-yl)-2-oxo-1,2-dihydro-1,8-naphthyridine-3-carbonitrile], the pIC50 in test [1] (2 h compound treatment) is 7.22. Moreover, in test [2], the “Coupled exchange IC50 (5 min; μM)” value stood at 0.10 µM.

For the molecule `C=CC(=O)N1[C@H](C)CN(c2c(C#N)c(=O)n(-c3c(C)ccnc3C(C)C)c3nc(-c4ccccc4F)c(Cl)cc23)C[C@@H]1C` [Example 7.3, 4-((3R,5S)-4-acryloyl-3,5-dimethylpiperazin-1-yl)-6-chloro-7-(2-fluorophenyl)-1-(2-isopropyl-4-methylpyridin-3-yl)-2-oxo-1,2-dihydro-1,8-naphthyridine-3-carbonitrile], the pIC50 in test [1] (setting [3]) is 6.59. Further, the “Coupled exchange IC50 (5 min; μM)” value in test [2] worked out at 0.18 µM.

For `C=CC(=O)N1CCN(c2c(C#N)c(=O)n(-c3c(C(C)C)ncnc3C(C)C)c3nc(-c4c(N)cccc4F)c(Cl)cc23)CC1` [Example 11.4, 4-(4-acryloylpiperazin-1-yl)-7-(2-amino-6-fluorophenyl)-6-chloro-1-(4,6-diisopropylpyrimidin-5-yl)-2-oxo-1,2-dihydro-1,8-naphthyridine-3-carbonitrile], in test [1] (setting [3]), the pIC50 was 7.05. In addition, the “Coupled exchange IC50 (5 min; μM)” value in test [2] is 0.13 µM.
